Patent publication US20170119020A1, “METHOD OF FEEDING AN ANIMAL” (CARGILL, INCORPORATED, priority 2014, published 2017)

Key:
[1] = tested on: sows (PIC); experiment: Sow performance (Example 10); assay type: in vivo, pig; details: for Culled sows, n: reproductive failure: 13 sows; for Wean-to-remate interval / Weaning-to-estrus interval: Subsequent performance; for Farrowing rate (%), subsequent performance: next cycle
Protocol: The trial was conducted at a farm in Poland. In general the housing and management conditions on the chosen workplace were considered representative for the geographical region. The breeding, gestation, and farrowing facilities of the farm were fully enclosed buildings with rooms that were ventilated and heated to maintain a minimum comfort zone temperature for the sows. Testing was performed on sows (primiparous and multiparous) of the same type of crossing (PIC). The trial comprised 52 sows in a system of continuous farrowing. Each group was consist of 13 animals. The trial ran from day 1 of pregnancy to remating in the next cycle. There were two dietary compositions: LP 0-90 d, LK-90 d of gestation-weaning. Feed fed throughout the study was manufactured in the feed mill of the farm. The feed produced was complete feeds according to the standard feeding management procedures on the participating farm. Feed consistency was mash. […] Each group was fed with complete diets for pregnant sows (0-90 d) and for lactation sows (90 d of gestation-weaning) with different inclusion of vitamin E and tested product (see TABLE 43A) and lactation diets (see TABLE 43B) The performance following criteria were monitored during the trial: (i) Sows response criteria (actual parity, farrowing rate, culled sows—number and reasons, wean-to-mating interval, farrowing rate in the next cycle); (ii) litter response criteria (number of piglets, total, alive, stillborn, mummies; weight of piglets and litters; survival). The following biochemical (blood) criteria were monitored during the trial for the sows (mating, farrowing and weaning), piglets 21st day: (i) glutathione peroxidase (GPx) activity; (ii) superoxide dismutase (SOD) activity; (iii) total antioxidant status (TAS); (iv) vitamin E content; (v) vitamin A content.

[2] = tested on: Ross 308 breeders; experiment: Broiler breeder performance, weeks 30 through 39 of age (Example 4); assay type: in vivo, chicken; details: breeder diet
Text: All breeders received the same standard control diet during the pre-experimental period (19-30 weeks of age). […] In total there were 24 floor pens with 30 breeder females and 3 males (after allocation). The experimental period lasted 9 weeks; the breeders received a lay phase diet during the entire experimental period. Feed and water were restricted. Feed amount depended on body weight development. Water was provided for two hours a day, crops were checked regularly to ensure the correct amount of water was provided. [table]

[3] = tested on: Ross 308 male broilers; experiment: Grow out of offspring (Example 6); assay type: in vivo, chicken; details: 160 versus 80 ppm in breeder diet
[4] = Group 2: vitamin E 50/75 mg/kg diet
[5] = Group 3: vitamin E 100/150 mg/kg diet

Cc1c(C)c2c(c(C)c1O)CCC(C)(CCCC(C)CCCC(C)CCCC(C)C)O2 (racemic) [Vitamin E, DL-α-tocopherol]
Farrowing rate (%) [1, 4]: 84.62%
Culled sows, n: reproductive failure [1, 4]: 2
Farrowing rate (%) [1, 5]: 84.62%
Culled sows, n: reproductive failure [1, 5]: 2
Wean-to-remate interval [1, 4]: 9.89 days
Weaning-to-estrus interval [1, 4]: 5.09 days
Wean-to-remate interval [1, 5]: 7.70 days
Weaning-to-estrus interval [1, 5]: 5.64 days
Farrowing rate (%), subsequent performance [1, 4]: 80.00%
Farrowing rate (%), subsequent performance [1, 5]: 90.91%
Average daily gain 30-34 wk ([2]; vitamin E equivalence 80 ppm): 5.36 g
Average daily gain 30-39 wk ([2]; vitamin E equivalence 80 ppm): 5.79 g
Average daily gain 34-39 wk ([2]; vitamin E equivalence 80 ppm): 5.96 g
Bodyweight 30 wks ([2]; vitamin E equivalence 80 ppm): 3.51 kg
Bodyweight 39 wks ([2]; vitamin E equivalence 80 ppm): 3.88 kg
Egg mass 30-34 wks ([2]; vitamin E equivalence 80 ppm): 52.4 g/h/d
Egg mass 30-39 wks ([2]; vitamin E equivalence 80 ppm): 51.6 g/h/d
Egg mass 34-39 wks ([2]; vitamin E equivalence 80 ppm): 50.9 g/h/d
Egg weight 30-34 wks ([2]; vitamin E equivalence 80 ppm): 60.1 g
Egg weight 30-39 wks ([2]; vitamin E equivalence 80 ppm): 61.2 g
Egg weight 34-39 wks ([2]; vitamin E equivalence 80 ppm): 62.4 g
First Class Eggs 30-34 wks ([2]; vitamin E equivalence 80 ppm): 80.2%
First Class Eggs 30-39 wks ([2]; vitamin E equivalence 80 ppm): 77.0%
First Class Eggs 34-39 wks ([2]; vitamin E equivalence 80 ppm): 73.8%
Laying in percentage 30-34 wks ([2]; vitamin E equivalence 80 ppm): 87.1%
Laying in percentage 30-39 wks ([2]; vitamin E equivalence 80 ppm): 84.3%
Laying in percentage 34-39 wks ([2]; vitamin E equivalence 80 ppm): 81.5%
Second Choice Eggs: Broken Eggs 30-34 wks ([2]; vitamin E equivalence 80 ppm): 1.2%
Second Choice Eggs: Broken Eggs 30-39 wks ([2]; vitamin E equivalence 80 ppm): 1.2%
Second Choice Eggs: Broken Eggs 34-39 wks ([2]; vitamin E equivalence 80 ppm): 1.2%
Second Choice Eggs: Dirty Eggs 30-34 wks ([2]; vitamin E equivalence 80 ppm): 1.4%
Second Choice Eggs: Dirty Eggs 30-39 wks ([2]; vitamin E equivalence 80 ppm): 1.7%
Second Choice Eggs: Dirty Eggs 34-39 wks ([2]; vitamin E equivalence 80 ppm): 1.9%
Second Choice Eggs: Double yolk Eggs 30-34 wks ([2]; vitamin E equivalence 80 ppm): 1.3%
Second Choice Eggs: Double yolk Eggs 30-39 wks ([2]; vitamin E equivalence 80 ppm): 0.9%
Second Choice Eggs: Double yolk Eggs 34-39 wks ([2]; vitamin E equivalence 80 ppm): 0.4%
Second Choice Eggs: Floor eggs, 30-34 wks ([2]; vitamin E equivalence 80 ppm): 2.3%
Second Choice Eggs: Floor eggs, 30-39 wks ([2]; vitamin E equivalence 80 ppm): 2.8%
Second Choice Eggs: Floor eggs, 34-39 wks ([2]; vitamin E equivalence 80 ppm): 3.4%
Second Choice Eggs: Remainder 30-34 wks ([2]; vitamin E equivalence 80 ppm): 0.5%
Second Choice Eggs: Remainder 30-39 wks ([2]; vitamin E equivalence 80 ppm): 0.6%
Second Choice Eggs: Remainder 34-39 wks ([2]; vitamin E equivalence 80 ppm): 0.8%
Second Choice Eggs: Shell less Eggs 30-34 wks ([2]; vitamin E equivalence 80 ppm): 0.2%
Second Choice Eggs: Shell less Eggs 30-39 wks ([2]; vitamin E equivalence 80 ppm): 0.1%
Second Choice Eggs: Shell less Eggs 34-39 wks ([2]; vitamin E equivalence 80 ppm): 0.0%
Average daily gain 30-34 wk ([2]; vitamin E equivalence 160 ppm): 5.65 g
Average daily gain 30-39 wk ([2]; vitamin E equivalence 160 ppm): 5.60 g
Average daily gain 34-39 wk ([2]; vitamin E equivalence 160 ppm): 5.40 g
Bodyweight 30 wks ([2]; vitamin E equivalence 160 ppm): 3.48 kg
Bodyweight 39 wks ([2]; vitamin E equivalence 160 ppm): 3.83 kg
Egg mass 30-34 wks ([2]; vitamin E equivalence 160 ppm): 52.5 g/h/d
Egg mass 30-39 wks ([2]; vitamin E equivalence 160 ppm): 52.4 g/h/d
Egg mass 34-39 wks ([2]; vitamin E equivalence 160 ppm): 52.2 g/h/d
Egg weight 30-34 wks ([2]; vitamin E equivalence 160 ppm): 60.3 g
Egg weight 30-39 wks ([2]; vitamin E equivalence 160 ppm): 61.6 g
Egg weight 34-39 wks ([2]; vitamin E equivalence 160 ppm): 62.9 g
First Class Eggs 30-34 wks ([2]; vitamin E equivalence 160 ppm): 78.6%
First Class Eggs 30-39 wks ([2]; vitamin E equivalence 160 ppm): 76.5%
First Class Eggs 34-39 wks ([2]; vitamin E equivalence 160 ppm): 74.4%
Laying in percentage 30-34 wks ([2]; vitamin E equivalence 160 ppm): 87.0%
Laying in percentage 30-39 wks ([2]; vitamin E equivalence 160 ppm): 85.0%
Laying in percentage 34-39 wks ([2]; vitamin E equivalence 160 ppm): 83.0%
Second Choice Eggs: Broken Eggs 30-34 wks ([2]; vitamin E equivalence 160 ppm): 1.2%
Second Choice Eggs: Broken Eggs 30-39 wks ([2]; vitamin E equivalence 160 ppm): 1.3%
Second Choice Eggs: Broken Eggs 34-39 wks ([2]; vitamin E equivalence 160 ppm): 1.5%
Second Choice Eggs: Dirty Eggs 30-34 wks ([2]; vitamin E equivalence 160 ppm): 1.8%
Second Choice Eggs: Dirty Eggs 30-39 wks ([2]; vitamin E equivalence 160 ppm): 1.8%
Second Choice Eggs: Dirty Eggs 34-39 wks ([2]; vitamin E equivalence 160 ppm): 1.7%
Second Choice Eggs: Double yolk Eggs 30-34 wks ([2]; vitamin E equivalence 160 ppm): 1.1%
Second Choice Eggs: Double yolk Eggs 30-39 wks ([2]; vitamin E equivalence 160 ppm): 0.8%
Second Choice Eggs: Double yolk Eggs 34-39 wks ([2]; vitamin E equivalence 160 ppm): 0.5%
Second Choice Eggs: Floor eggs, 30-34 wks ([2]; vitamin E equivalence 160 ppm): 3.3%
Second Choice Eggs: Floor eggs, 30-39 wks ([2]; vitamin E equivalence 160 ppm): 3.7%
Second Choice Eggs: Floor eggs, 34-39 wks ([2]; vitamin E equivalence 160 ppm): 4.1%
Second Choice Eggs: Remainder 30-34 wks ([2]; vitamin E equivalence 160 ppm): 0.8%
Second Choice Eggs: Remainder 30-39 wks ([2]; vitamin E equivalence 160 ppm): 0.7%
Second Choice Eggs: Remainder 34-39 wks ([2]; vitamin E equivalence 160 ppm): 0.6%
Second Choice Eggs: Shell less Eggs 30-34 wks ([2]; vitamin E equivalence 160 ppm): 0.3%
Second Choice Eggs: Shell less Eggs 30-39 wks ([2]; vitamin E equivalence 160 ppm): 0.2%
Second Choice Eggs: Shell less Eggs 34-39 wks ([2]; vitamin E equivalence 160 ppm): 0.2%
feed to gain corrected for final bodyweight, worse for high versus low vitamin E treatment [3]: 2.6%
overall feed to gain, worse for high versus low vitamin E treatment [3]: 1.4%
